Measured values: patent publication US11617777B2, “Cytotoxic and anti-mitotic compounds, and methods of using the same” (ZYMEWORKS BC INC., priority 2013, dated 2023)
Read-outs that look alike come from different tables or passages of the source.

Test system: Jurkat cells
Test: Cytotoxicity of compounds, CellTiter-Glo
Assay type: cell-based, Human
Conditions: read-out: EC50
Description: Cell lines used: Human T-cell leukemia cell line Jurkat (ATCC: TIB-152); HCC1954 (ATCC: CRL. 2338); Human Pancreatic cells lines: AsPC-1 (ATCC: CRL-1682), BxPC-3 (ATCC: CRL.1687), HPAF-II (ATCC: CRL.1997), MiaPaCa2 (ATCC: CRL.1420), PANC-1 (ATCC: CRL.1469), Capan-1 (ATCC: HTB-79), Capan-2 (ATCC: HTB-80) and the Human gastric carcinoma cell line NCI-N87 (ATCC: CRL. 5822); AML-193 (ATCC: CRL.9589), CCRF-CEM (ATCC: CCL-119), DU145 (ATCC: HTB-81), PC-3 (ATCC: CRL.1435), A-431 (ATCC: CRL.1555), HT-29 (ATCC: HTB-38), A-172 (ATCC: CRL.1620), NCI-H358 (ATCC: CRL.5807), A549 (ATCC: CCL-185), Colo-205 (ATCC: CCL-222), MDA-MB-231 (ATCC: HTB-26), OVCAR-3 (ATCC: HTB-161), OV-90 (ATCC: CRL.11732), OE19 (Sigma: 96071721), RT 112/84 (Sigma: 85061106).
On the day prior to adding compounds, HCC1954 AsPC-1, BxPC-3, HPAF-II, MiaPaCa2, PANC-1, Capan-1, Capan-2 and NCI-N87 cells were added to opaque-walled 96-well tissue culture-treated microtiter plates using complete growth medium at a density of 2500 cells/100 microlitre (uL) of medium. These adherant cell lines cells were incubated for one night at 37° C./5% CO2 to allow the cells to attach to the microtiter plate surface. On the day that compounds were added, Jurkat cells are added to separate 96-well microtiter plates at 2500 cells/100 uL using the same growth medium as HCC1954. Compound were first serially diluted using dimethyl sulfoxide, and then the prepared dilutions are added to complete growth medium at five-times the final concentration—compounds were then titrated 1:3, eight steps. A control with no compound (growth medium alone) was included on each microtiter plate in sextuplicate. The prepared compounds titrations were added (twenty-five uL/well) in triplicate. The cells and compound titrations were incubated at 37° C./5% CO2 for three nights. After the incubation, cell viability is measured using CellTiter-Glo® reagent by adding thirty uL of prepared CellTiter-Glo® to each assay well. The assay is incubated for at least twenty minutes in the dark prior to measuring emitted luminescence using a microplate luminometer (500 ms integration time). The collected relative luminescence units (RLU) are converted to % cytotoxicity using the Growth medium alone control mentioned above (% Cytotoxicity=1−[Well RLU/average medium alone control RLU]).
GraphPad Prism was used for generation of EC50 values using three parameter non-linear regression curve fitting.

[1] = Homo sapiens, Jurkat, Table 3, Cytotoxicity of Compounds on Jurkat Cells
[2] = Homo sapiens, Jurkat, Table 6, Compound Cytotoxicity on Jurkat

Structure (SMILES)	EC50 [1]	EC50 [2]	EC50 (Table 6, Compound Cytotoxicity on Jurkat)
CN[C@H](C(=O)N[C@H](C(=O)N(C)[C@H](/C=C(\C)C(=O)NS(=O)(=O)Cc1cccnc1)C(C)C)C(C)(C)C)C(C)(C)c1ccccc1 [Compound 45, (S,E)-2,5-dimethyl-N-(pyridin-3-ylmethylsulfonyl)-4-((S)—N,3,3-trimethyl-2-((S)-3-methyl-2-(methylamino)-3-phenylbutanamido)butanamido)hex-2-enamide]	0.869 nM	0.373 nM	
CN[C@H](C(=O)N[C@H](C(=O)N(C)[C@H](/C=C(\C)C(=O)NS(=O)(=O)c1cccc(NC(=O)C(F)(F)F)c1)C(C)C)C(C)(C)C)C(C)(C)c1ccccc1 [Compound 47, (S,E)-2,5-dimethyl-N-(3-(2,2,2-trifluoroacetamido)phenylsulfonyl)-4-((S)—N,3,3-trimethyl-2-((S)-3-methyl-2-(methylamino)-3-phenylbutanamido)butanamido)hex-2-enamide]	0.261 nM		
CN[C@H](C(=O)N[C@H](C(=O)N(C)[C@H](/C=C(\C)C(=O)NS(=O)(=O)c1cccc(N)c1)C(C)C)C(C)(C)C)C(C)(C)c1ccccc1 [Compound 48, (S,E)-N-(3-aminophenylsulfonyl)-2,5-dimethyl-4-((S)—N,3,3-trimethyl-2-((S)-3-methyl-2-(methylamino)-3-phenylbutanamido)butanamido)hex-2-enamide]	0.208 nM		
CN[C@H](C(=O)N[C@H](C(=O)N(C)[C@H](/C=C(\C)C(=O)NS(=O)(=O)c1cccnc1)C(C)C)C(C)(C)C)C(C)(C)c1ccccc1 [Compound 49, (S,E)-2,5-dimethyl-N-(pyridin-3-ylsulfonyl)-4-((S)—N,3,3-trimethyl-2-((S)-3-methyl-2-(methylamino)-3-phenylbutanamido)butanamido)hex-2-enamide]	2.5 nM		
CN[C@H](C(=O)N[C@H](C(=O)N(C)[C@H](/C=C(\C)C(=O)NS(=O)(=O)c1cccs1)C(C)C)C(C)(C)C)C(C)(C)c1ccccc1 [Compound 50, (S,E)-2,5-dimethyl-N-(thiophen-2-ylsulfonyl)-4-((S)—N,3,3-trimethyl-2-((S)-3-methyl-2-(methylamino)-3-phenylbutanamido)butanamido)hex-2-enamide]	0.171 nM		
CN[C@H](C(=O)N[C@H](C(=O)N(C)[C@H](/C=C(\C)C(=O)NS(=O)(=O)c1ccc(O)cc1)C(C)C)C(C)(C)C)C(C)(C)c1ccccc1 [Compound 51, (S,E)-N-(4-hydroxyphenylsulfonyl)-2,5-dimethyl-4-((S)—N,3,3-trimethyl-2-((S)-3-methyl-2-(methylamino)-3-phenylbutanamido)butanamido)hex-2-enamide]	0.247 nM		
CN[C@H](C(=O)N[C@H](C(=O)N(C)[C@H](/C=C(\C)C(=O)NS(=O)(=O)Cc1ccc(C2(NC(=O)C(F)(F)F)CC2)cc1)C(C)C)C(C)(C)C)C(C)(C)c1ccccc1 [Compound 57, (S,E)-2,5-dimethyl-N-(4-(1-(2,2,2-trifluoroacetamido)cyclopropyl)benzylsulfonyl)-4-((S)—N,3,3-trimethyl-2-((S)-3-methyl-2-(methylamino)-3-phenylbutanamido)butanamido)hex-2-enamide]	0.566 nM		
CN[C@H](C(=O)N[C@H](C(=O)N(C)[C@H](/C=C(\C)C(=O)NS(=O)(=O)Cc1ccc(C2(N)CC2)cc1)C(C)C)C(C)(C)C)C(C)(C)c1ccccc1 [Compound 58, (S,E)-N-(4-(1-aminocyclopropyl)benzylsulfonyl)-2,5-dimethyl-4-((S)—N,3,3-trimethyl-2-((S)-3-methyl-2-(methylamino)-3-phenylbutanamido)butanamido) hex-2-enamide]	0.816 nM		
CN[C@H](C(=O)N[C@H](C(=O)N(C)[C@H](/C=C(\C)C(=O)NS(=O)(=O)c1ccc(C2(NC(=O)C(F)(F)F)CC2)cc1)C(C)C)C(C)(C)C)C(C)(C)c1ccccc1 [Compound 62, (S,E)-2,5-dimethyl-N-(4-(1-(2,2,2-trifluoroacetamido)cyclopropyl)phenylsulfonyl)-4-((S)—N,3,3-trimethyl-2-((S)-3-methyl-2-(methylamino)-3-phenylbutanamido)butanamido)hex-2-enamide]		1.2 nM	
CN[C@H](C(=O)N[C@H](C(=O)N(C)[C@H](/C=C(\C)C(=O)NS(=O)(=O)Cc1ccccc1C)C(C)C)C(C)(C)C)C(C)(C)c1ccccc1 [Compound 64, (S,E)-2,5-dimethyl-N-(2-methylbenzylsulfonyl)-4-((S)—N,3,3-trimethyl-2-((S)-3-methyl-2-(methylamino)-3-phenylbutanamido)butanamido)hex-2-enamide]		0.138 nM	
CN[C@H](C(=O)N[C@H](C(=O)N(C)[C@H](/C=C(\C)C(=O)NS(=O)(=O)Cc1ccc(Cl)cc1)C(C)C)C(C)(C)C)C(C)(C)c1ccccc1 [Compound 66, (S,E)-N-(4-chlorobenzylsulfonyl)-2,5-dimethyl-4-((S)—N,3,3-trimethyl-2-((S)-3-methyl-2-(methylamino)-3-phenylbutanamido)butanamido)hex-2-enamide]		0.145 nM	
CN[C@H](C(=O)N[C@H](C(=O)N(C)[C@H](/C=C(\C)C(=O)NS(=O)(=O)CCc1ccccc1)C(C)C)C(C)(C)C)C(C)(C)c1ccccc1 [Compound 67, (S,E)-2,5-dimethyl-N-(phenethylsulfonyl)-4-((S)—N,3,3-trimethyl-2-((S)-3-methyl-2-(methylamino)-3-phenylbutanamido)butanamido)hex-2-enamide]		0.562 nM	
CN[C@H](C(=O)N[C@H](C(=O)N(C)[C@H](/C=C(\C)C(=O)NS(=O)(=O)Cc1ccc(Br)cc1)C(C)C)C(C)(C)C)C(C)(C)c1ccccc1 [Compound 68, (S,E)-N-(4-bromobenzylsulfonyl)-2,5-dimethyl-4-((S)—N,3,3-trimethyl-2-((S)-3-methyl-2-(methylamino)-3-phenylbutanamido)butanamido)hex-2-enamide]		0.337 nM	
CN[C@H](C(=O)N[C@H](C(=O)N(C)[C@H](/C=C(\C)C(=O)NS(=O)(=O)Cc1ccc(C#N)cc1)C(C)C)C(C)(C)C)C(C)(C)c1ccccc1 [Compound 69, (S,E)-N-(4-cyanobenzylsulfonyl)-2,5-dimethyl-4-((S)—N,3,3-trimethyl-2-((S)-3-methyl-2-(methylamino)-3-phenylbutanamido)butanamido)hex-2-enamide]		1.56 nM	
CN[C@H](C(=O)N[C@H](C(=O)N(C)[C@H](/C=C(\C)C(=O)NS(=O)(=O)Cc1cccc([N+](=O)[O-])c1)C(C)C)C(C)(C)C)C(C)(C)c1ccccc1 [Compound 70, (S,E)-2,5-dimethyl-N-(3-nitrobenzylsulfonyl)-4-((S)—N,3,3-trimethyl-2-((S)-3-methyl-2-(methylamino)-3-phenylbutanamido)butanamido)hex-2-enamide]		0.856 nM	
CN[C@H](C(=O)N[C@H](C(=O)N(C)[C@H](/C=C(\C)C(=O)NS(=O)(=O)Cc1ccc(C(C)(C)C)cc1)C(C)C)C(C)(C)C)C(C)(C)c1ccccc1 [Compound 71, (S,E)-N-(4-tert-butylbenzylsulfonyl)-2,5-dimethyl-4-((S)—N,3,3-trimethyl-2-((S)-3-methyl-2-(methylamino)-3-phenylbutanamido)butanamido)hex-2-enamide]		1.02 nM	
CN[C@H](C(=O)N[C@H](C(=O)N(C)[C@H](/C=C(\C)C(=O)NS(=O)(=O)Cc1ccccc1[N+](=O)[O-])C(C)C)C(C)(C)C)C(C)(C)c1ccccc1 [Compound 72, (S,E)-2,5-dimethyl-N-(2-nitrobenzylsulfonyl)-4-((S)—N,3,3-trimethyl-2-((S)-3-methyl-2-(methylamino)-3-phenylbutanamido)butanamido)hex-2-enamide]			0.531 nM
CN[C@H](C(=O)N[C@H](C(=O)N(C)[C@H](/C=C(\C)C(=O)NS(=O)(=O)CCc1ccc([N+](=O)[O-])cc1)C(C)C)C(C)(C)C)C(C)(C)c1ccccc1 [Compound 73, (S,E)-2,5-dimethyl-N-(4-nitrophenethylsulfonyl)-4-((S)—N,3,3-trimethyl-2-((S)-3-methyl-2-(methylamino)-3-phenylbutanamido)butanamido)hex-2-enamide]		2.68 nM	
